For experiment [1], the system named is MRSA (strain LAC). The experiment can be described thus: Time-dependent killing of MRSA (strain LAC). In kind it is cell-based, Staphylococcus aureus. The following applies: liquid culture, single inoculation, FIG. 3. The text has this:
FIG. 3 is a plot showing the time-dependent killing of MRSA (strain LAC) by vancomycin and an example vancomycin-2-3-pyrrolidinedione conjugate (Compound 4).
(§1) With these initial results in hand, the time-dependent killing of bacterial strains by the vancomycin-2-3-pyrrolidinedione conjugates was investigated. FIG. 2 is a plot showing the time-dependent killing of S. aureus (strain HG003) by vancomycin and an example vancomycin-2-3-pyrrolidinedione conjugate (Compound 4, also referred to as AV-273). FIG. 3 is a plot showing the time-dependent killing of MRSA (strain LAC) by vancomycin and an example vancomycin-2-3-pyrrolidinedione conjugate (Compound 4).

For experiment [2], the system named is MSSA ATCC 25923 biofilm. The experiment can be described thus: Viable bacteria in supernatant and biofilm after single treatment of MSSA biofilm. In kind it is cell-based, Staphylococcus aureus. The text has this:
FIG. 5 is a plot showing the effect of a single dose of different concentrations of Compound 4 on the concentration of bacteria in the supernatant over a methicillin-susceptible Staphylococcus aureus (MSSA ATCC 25923). FIG. 6 is a plot showing the time-dependent biofilm population following treatment of a methicillin-susceptible Staphylococcus aureus (MSSA ATCC 25923) biofilm with Compound 4. […] FIG. 5 is a plot showing the effect of a single dose of different concentrations of Compound 4 on the concentration of bacteria in the supernatant over a methicillin-susceptible Staphylococcus aureus (MSSA ATCC 25923). […] FIG. 6 is a plot showing the time-dependent biofilm population following treatment of a methicillin-susceptible Staphylococcus aureus (MSSA ATCC 25923) biofilm with Compound 4.

For experiment [3], the system named is S. aureus VRS-2. The experiment can be described thus: VRSA thigh infection model in neutropenic mice. The experiment is classed as in vivo, mouse. The following applies: 100 mg/kg IP BID q12h; for bacterial count reduction in thigh tissue relative to the vehicle control group: 26 h post-infection, p<0.05. The procedure:
(§2) FIG. 8 is a plot comparing the efficacy of linezolid, Compound 4 (AV-0273), and Compound 8 (AV-0267) in the S. aureus VRS-2 thigh infection model, CFU/g thigh. Test animals were rendered neutropenic with cyclophosphamide administration, 150 mg/kg on Day −4 then 100 mg/kg on Day −1 prior to infection on Day 0. On Day 0, animals were intramuscularly inoculated with 8.4×10^4 CFU/mouse (0.1 mL/animal) of the S. aureus VRS-2 strain. The vehicle and the test articles, Compound 4 (AV-0273) and Compound 8 (AV-0267), both at 100 mg/kg, were each intraperitoneally (IP) administered twice with a 12 h interval (BID q12h) at 2 and 14 h after infection. The reference standard, linezolid at 50 mg/kg, was orally (PO) administered BID q12 h starting at 2 h post-infection. Animals were sacrificed at 2 or 26 h post-infection, and the thigh tissues were harvested and weighed from each of the test animals. The bacterial counts (CFU/g thigh) of thigh tissue homogenates were measured.
as §2, with “FIG. 9” for “FIG. 8”, “of linezolid” for “of linezolid,”, “CFU/g thigh, change in bacterial counts relative to baseline count at 26h post-infection. Data represent the change in bacterial counts in thigh tissue following test article treatment relative to the initial 2 h CFU/g thigh or CFU/thigh at the time of dosing (baseline counts).” for “CFU/g thigh.”, “(BID q12 h)” for “(BID q12h)”, “(CFU/g thigh and CFU/thigh)” for “(CFU/g thigh)”, “were compared.” for “were measured.”
Example vancomycin-2,3-pyrrolidinediones conjugates were evaluated using an in vivo tissue infection model with vancomycin resistant MRSA:
Animal model: Murine thigh infection
Bacteria: VRSA (VRS-2). Gram Positive, Staphylococcus aureus (VRSA, VRS-2), Mouse Infected Thigh Model. VRS-2 is VanA producing SCC Mec II st5 train.
Vancomycin conjugates dose: 100 mg/Kg intraperitoneally (IP).
Application: This model assesses the antimicrobial efficacy of test articles in a tissue infection model with vancomycin resistant MRSA. Microbial counts are measured. […]

Experiment [4] relates to VSE 2127. The experiment can be described thus: MIC against VSE 2127. The experiment is classed as cell-based, Enterococcus spp.
The subject of experiment [5] is S. aureus (strain HG003). The experiment can be described thus: Time-dependent killing of S. aureus (strain HG003). In kind it is cell-based, Staphylococcus aureus. The following applies: S. aureus strain HG003, liquid culture, single inoculation, FIG. 2.
Excerpt: FIG. 2 is a plot showing the time-dependent killing of S. aureus (strain HG003) by vancomycin and an example vancomycin-2-3-pyrrolidinedione conjugate (Compound 4).
as §1

For experiment [6], the system named is vanB VRE 51299. The experiment can be described thus: MIC against vanB VRE 51299. As to conditions: Enterococcus. The experiment is classed as cell-based, Enterococcus spp.
For experiment [7], the system named is VRSA. As to conditions: S. aureus VRS-2; cited from earlier work.

The structures appear in SMILES notation. ≈ marks a conversion by molar mass, not a printed value. Like-named read-outs stand apart in the source and are kept apart here. Where only a bound is given, the exact number is not on record here.

Data on three molecules can be found in US20250312258A1, “2,3-PYRROLIDINEDIONE CONJUGATES AND METHODS OF USING THEREOF” (North Carolina State University, priority 2022, published 2025).

The term MIC denotes the lowest concentration that inhibits growth of the organism. For `CCC1C(c2ccc(C(F)(F)F)cc2)=C(O)C(=O)N1C1CCC(NC)CC1` (stereo not drawn) [Compound 4], the time-dependent killing profile result in experiment [1] and in experiment [5] was “roughly matched vancomycin at the same concentration” throughout. In addition, the “single dose at which no viable bacterial cells were detected in the treatment supernatant” value in experiment [2] (MSSA ATCC 25923, detection limit 10^2, FIG. 5) is given as “at least 16 μg/mL”. The “viable biofilm-embedded bacterial cells” value in experiment [2] (MSSA ATCC 25923 biofilm, 24 hours after a single treatment at twice the MBEC, FIG. 6) is listed as “no viable biofilm-embedded bacterial cells were detected”. For the same molecule, the “bacterial count reduction in thigh tissue relative to the vehicle control group” value in experiment [3] was determined as 100%. In experiment [3] (FIG. 9), the “effect relative to the baseline control” value was “bacteriostatic effect”. Besides, the minimum inhibitory concentration (MIC) in experiment [4] (Enterococcus; read-out: MIC (VSE 2127)) worked out at 0.5 µg/mL (≈ 1.31 µM); in experiment [6] (VRE, the 2nd table, read-out: MIC (vanB VRE 51299)) it was 2 µg/mL (≈ 5.23 µM); in experiment [6] (vanB VRE 51299, the 3rd table, read-out: MIC), 2 µg/mL (≈ 5.23 µM).

`CCC1C(c2ccc(C(F)(F)F)cc2)=C(O)C(=O)N1CCCNCCCCNC` (stereo not drawn) [Compound 8]: the “bacterial count reduction in thigh tissue relative to the vehicle control group” value in experiment [3] was 100%.

As for `CN[C@H](CC(C)C)C(=O)N[C@H]1C(=O)N[C@@H](CC(N)=O)C(=O)N[C@H]2C(=O)N[C@H]3C(=O)N[C@H](C(=O)N[C@H](C(=O)O)c4cc(O)cc(O)c4-c4cc3ccc4O)[C@H](O)c3ccc(c(Cl)c3)Oc3cc2cc(c3O[C@@H]2O[C@H](CO)[C@@H](O)[C@H](O)[C@H]2O[C@H]2C[C@](C)(N)[C@H](O)[C@H](C)O2)Oc2ccc(cc2Cl)[C@H]1O` [Vancomycin, vancomycin, reference compound], in experiment [7], the MIC of vancomycin for VRS-2 (strain description) was above 64 µg/mL. Also, the “antibiotic resistance profile of VRS-2: vancomycin” value in experiment [7] is above 64 µg/mL. The minimal inhibitory concentration (MIC) was found to be 2 µg/mL (≈ 1.38 µM) in experiment [4] (Enterococcus, read-out: MIC (VSE 2127)); 256 µg/mL (≈ 177 µM) in experiment [6] (VRE); 256 µg/mL (≈ 177 µM) in experiment [6] (VRE, read-out: MIC (vanB VRE 51299)).
